Assays:
Uromyces viciae-fabae = assay: Fungicidal activity against Uromyces viciae-fabae / field bean / leaf disc preventative (faba-bean rust); type: in vivo; conditions: foliar, 288 h, 100 ppm in the applied formulation, field bean leaf discs, preventative (inoculated two hours after application), assessed 12 days after application, read-out: disease control compared to untreated control leaf discs
Protocol: Leaf disks or leaf segments of various plant species are cut from plants grown in a greenhouse. The cut leaf disks or segments are placed in multiwell plates (24-well format) onto water agar. The leaf disks are sprayed with a test solution before (preventative) or after (curative) inoculation. Compounds to be tested are prepared as DMSO solutions (max. 10 mg/ml) which are diluted to the appropriate concentration with 0.025% Tween20 just before spraying. The inoculated leaf disks or segments are incubated under defined conditions (temperature, relative humidity, light, etc.) according to the respective test system. A single evaluation of disease level is carried out 3 to 14 days after inoculation, depending on the pathosystem. Percent disease control relative to the untreated check leaf disks or segments is then calculated. General Examples of Liquid Culture Tests in Well Plates:
Example 5: Fungicidal Activity Against Uromyces viciae-fabae/Field Bean/Leaf Disc Preventative (Faba-Bean Rust)
Field bean leaf discs are placed on water agar in multiwell plates (96-well format) and 10 μl of the formulated test compound diluted in acetone and a spreader pipetted onto the leaf disc. Two hours after application leaf discs are inoculated by spraying a spore suspension on the lower leaf surface. The leaf discs are incubated in a climate cabinet at 22° C. with 18 hour day and 70% relative humidity. The activity of a compound is assessed as percent disease control compared to untreated when an appropriate level of disease damage appears in untreated check leaf disks (12 days after application).
The following compounds at 100 ppm in the applied formulation give at least 80% disease control in this test when compared to untreated control leaf discs under the same conditions, which show extensive disease development.

Phakopsora pachyrhizi = assay: Fungicidal activity against Phakopsora pachyrhizi / soybean / leaf disc preventative (Asian soybean rust); type: in vivo; conditions: foliar, 200 ppm in the applied formulation, soybean leaf disks, preventative (inoculated one day after application), assessed 12 to 14 days after application, read-out: disease control compared to untreated control leaf disks
In short: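 Preventative test: compound applied to soybean leaf discs a day before spore inoculation of the lower surface. Discs kept at 20° C and 75% rh, first 24-36 h in darkness, then under 12 h light/day; disease control relative to untreated discs rated 12 to 14 days post-application.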

[1] = system: Puccinia recondita f. sp. tritici; assay: Fungicidal activity against Puccinia recondita f. sp. tritici / wheat / leaf disc curative (brown rust); type: in vivo; conditions: foliar, 200 ppm in the applied formulation, wheat leaf segments cv. Kanzler, curative (applied 1 day after inoculation), assessed 6 to 8 days after application, read-out: disease control compared to untreated control leaf disks
In short: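 Curative test: compound, diluted from DMSO stock into water, applied one day after spore inoculation of wheat (cv. Kanzler) leaf segments kept on agar in darkness at 19° C. and 75% RH. Climate-cabinet incubation (19° C., 75% RH, 12 h photoperiod); disease control relative to untreated read 6–8 days post-application.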

[2] = system: Glomerella laqenarium (Colletotrichum lagenarium); assay: Fungicidal activity against Glomerella lagenarium (Colletotrichum lagenarium) liquid culture / cucumber / preventative (anthracnose); type: cell-based; conditions: Colletotrichum orbiculare; 20 ppm in the applied formulation; liquid culture in PDB, 24° C., 3 to 4 days after application; read-out: disease control compared to untreated control (inhibition of growth measured photometrically)
In short: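 Test compound, applied from DMSO solution, is combined with PDB containing conidia taken from cryogenic storage. After 3–4 days at 24 °C, growth is measured photometrically and antifungal activity expressed as percent relative to untreated control.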

[3] = system: Puccinia recondita f. sp. tritici; assay: Fungicidal activity against Puccinia recondita f. sp. tritici / wheat / leaf disc preventative (brown rust); type: in vivo; conditions: foliar, 200 ppm in the applied formulation, wheat leaf segments cv. Kanzler, preventative (inoculated 1 day after application), assessed 7 to 9 days after application, read-out: disease control compared to untreated control leaf disks
In short: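 Preventative leaf-segment test: compound sprayed at 200 ppm onto wheat (cv. Kanzler) segments, brown rust spores applied 1 day after. Kept at 19C and 75% rh under 12 h light/dark cycles; disease control versus untreated check read 7 to 9 days post-application.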

| SMILES | pest or weed control at 100 ppm (Uromyces viciae-fabae) | pest or weed control at 200 ppm (Phakopsora pachyrhizi) | pest or weed control at 200 ppm [1] | inhibition at 20 ppm [2] | pest or weed control at 200 ppm [3] |
| --- | --- | --- | --- | --- | --- |
| CC1CCCC(NC(=O)c2ccc(-c3noc(C(F)(F)F)n3)cc2)C1 (centres unmarked) [Compound 2a.2, N-(3-methylcyclohexyl)-4-[5-(trifluoromethyl)-1,2,4-oxadiazol-3-yl]benzamide] | ≥ 80% | ≥ 80% | – | – | – |
| O=C(NC1CCCCCCC1)c1ccc(-c2noc(C(F)(F)F)n2)cc1 [Compound 2a.5, N-cyclooctyl-4-[5-(trifluoromethyl)-1,2,4-oxadiazol-3-yl]benzamide] | ≥ 80% | ≥ 80% | – | – | – |
| C[C@@H](NC(=O)c1ccc(-c2noc(C(F)(F)F)n2)cc1)C1CCCCC1 [Compound 2a.8, N-[(1R)-1-cyclohexylethyl]-4-[5-(trifluoromethyl)-1,2,4-oxadiazol-3-yl]benzamide] | ≥ 80% | ≥ 80% | – | – | – |
| O=C(NC1CC1c1ccccc1)c1ccc(-c2noc(C(F)(F)F)n2)cc1F (centres unmarked) [Compound 2b.7, 2-fluoro-N-(2-phenylcyclopropyl)-4-[5-(trifluoromethyl)-1,2,4-oxadiazol-3-yl]benzamide] | ≥ 80% | ≥ 80% | – | – | – |
| CC(C)N(C)C(=O)c1ccc(-c2noc(C(F)(F)F)n2)cc1F [Compound 3b.36, 2-fluoro-N-isopropyl-N-methyl-4-[5-(trifluoromethyl)-1,2,4-oxadiazol-3-yl]benzamide] | – | ≥ 80% | ≥ 80% | ≥ 80% | ≥ 80% |
| CN(C(=O)c1ccc(-c2noc(C(F)(F)F)n2)cc1F)C(C)(C)C [Compound 3b.37, N-tert-butyl-2-fluoro-N-methyl-4-[5-(trifluoromethyl)-1,2,4-oxadiazol-3-yl]benzamide] | – | ≥ 80% | ≥ 80% | ≥ 80% | ≥ 80% |
| CCCCN(C)C(=O)c1ccc(-c2noc(C(F)(F)F)n2)cc1F [Compound 3b.38, N-butyl-2-fluoro-N-methyl-4-[5-(trifluoromethyl)-1,2,4-oxadiazol-3-yl]benzamide] | – | ≥ 80% | ≥ 80% | ≥ 80% | ≥ 80% |
| CCOCCNC(=O)c1ccc(-c2noc(C(F)(F)F)n2)cc1F [Compound 3b.39, N-(2-ethoxyethyl)-2-fluoro-4-[5-(trifluoromethyl)-1,2,4-oxadiazol-3-yl]benzamide] | – | ≥ 80% | ≥ 80% | ≥ 80% | ≥ 80% |
| COCC(C)NC(=O)c1ccc(-c2noc(C(F)(F)F)n2)cc1F (centres unmarked) [Compound 3b.40, 2-fluoro-N-(2-methoxy-1-methyl-ethyl)-4-[5-(trifluoromethyl)-1,2,4-oxadiazol-3-yl]benzamide] | – | ≥ 80% | ≥ 80% | ≥ 80% | ≥ 80% |
| CC(C)CCNC(=O)c1ccc(-c2noc(C(F)(F)F)n2)cc1F [Compound 3b.41, 2-fluoro-N-isopentyl-4-[5-(trifluoromethyl)-1,2,4-oxadiazol-3-yl]benzamide] | – | ≥ 80% | ≥ 80% | ≥ 80% | ≥ 80% |
| CC(C)OCCNC(=O)c1ccc(-c2noc(C(F)(F)F)n2)cc1F [Compound 3b.43, 2-fluoro-N-(2-isopropoxyethyl)-4-[5-(trifluoromethyl)-1,2,4-oxadiazol-3-yl]benzamide] | – | ≥ 80% | ≥ 80% | ≥ 80% | ≥ 80% |
| C#CCN(C)C(=O)c1ccc(-c2noc(C(F)(F)F)n2)cc1F [Compound 3b.44, 2-fluoro-N-methyl-N-prop-2-ynyl-4-[5-(trifluoromethyl)-1,2,4-oxadiazol-3-yl]benzamide] | – | ≥ 80% | ≥ 80% | ≥ 80% | ≥ 80% |
| O=C(Nc1ccc(Cl)cc1)c1ccc(-c2noc(C(F)(F)F)n2)cc1 [Compound 4a.6, N-(4-chlorophenyl)-4-[5-(trifluoromethyl)-1,2,4-oxadiazol-3-yl]benzamide] | ≥ 80% | ≥ 80% | – | – | – |
| O=C(Nc1ccccc1F)c1ccc(-c2noc(C(F)(F)F)n2)cc1 [Compound 4a.7, N-(2-fluorophenyl)-4-[5-(trifluoromethyl)-1,2,4-oxadiazol-3-yl]benzamide] | ≥ 80% | ≥ 80% | – | – | – |
| O=C(Nc1ccc(F)cc1)c1ccc(-c2noc(C(F)(F)F)n2)cc1 [Compound 4a.8, N-(4-fluorophenyl)-4-[5-(trifluoromethyl)-1,2,4-oxadiazol-3-yl]benzamide] | ≥ 80% | ≥ 80% | – | – | – |
| O=C(Nc1cccc(C(F)(F)F)c1)c1ccc(-c2noc(C(F)(F)F)n2)cc1 [Compound 4a.9, 4-[5-(trifluoromethyl)-1,2,4-oxadiazol-3-yl]-N-[3-(trifluoromethyl)phenyl]benzamide] | ≥ 80% | ≥ 80% | – | – | – |
| CCc1cccc(NC(=O)c2ccc(-c3noc(C(F)(F)F)n3)cc2)c1 [Compound 4a.10, N-(3-ethylphenyl)-4-[5-(trifluoromethyl)-1,2,4-oxadiazol-3-yl]benzamide] | ≥ 80% | ≥ 80% | – | – | – |
| Cc1ccc(C)c(CNC(=O)c2ccc(-c3noc(C(F)(F)F)n3)cc2)c1 [Compound 4a.11, N-[(2,5-dimethylphenyl)methyl]-4-[5-(trifluoromethyl)-1,2,4-oxadiazol-3-yl]benzamide] | ≥ 80% | ≥ 80% | – | – | – |
| O=C(Nc1ccc(N2CCOCC2)cc1)c1ccc(-c2noc(C(F)(F)F)n2)cc1 [Compound 4a.12, N-(4-morpholinophenyl)-4-[5-(trifluoromethyl)-1,2,4-oxadiazol-3-yl]benzamide] | ≥ 80% | ≥ 80% | – | – | – |
| O=C(Nc1ccccc1)c1ccc(-c2noc(C(F)(F)F)n2)cc1F [Compound 4b.12, 2-fluoro-N-phenyl-4-[5-(trifluoromethyl)-1,2,4-oxadiazol-3-yl]benzamide] | ≥ 80% | ≥ 80% | – | – | – |
| CC(C)(C)c1cc(NC(=O)c2ccc(-c3noc(C(F)(F)F)n3)cc2)[nH]n1 [Compound 5a.2, N-(3-tert-butyl-1H-pyrazol-5-yl)-4-[5-(trifluoromethyl)-1,2,4-oxadiazol-3-yl]benzamide] | ≥ 80% | ≥ 80% | – | – | – |
| O=C(Nc1nc(Br)n[nH]1)c1ccc(-c2noc(C(F)(F)F)n2)cc1 [Compound 5a.6, N-(3-bromo-1H-1,2,4-triazol-5-yl)-4-[5-(trifluoromethyl)-1,2,4-oxadiazol-3-yl]benzamide] | – | ≥ 80% | ≥ 80% | ≥ 80% | ≥ 80% |
| O=C(Nc1nccnn1)c1ccc(-c2noc(C(F)(F)F)n2)cc1 [Compound 5a.8, N-(1,2,4-triazin-3-yl)-4-[5-(trifluoromethyl)-1,2,4-oxadiazol-3-yl]benzamide] | – | ≥ 80% | ≥ 80% | ≥ 80% | ≥ 80% |
| CC(C)(C)c1cc(NC(=O)c2ccc(-c3noc(C(F)(F)F)n3)cc2F)[nH]n1 [Compound 5b.6, N-(3-tert-butyl-1H-pyrazol-5-yl)-2-fluoro-4-[5-(trifluoromethyl)-1,2,4-oxadiazol-3-yl]benzamide] | ≥ 80% | ≥ 80% | – | – | – |

— US10959432B2, “Microbiocidal oxadiazole derivatives” (Syngenta Participations AG, priority 2016, dated 2021)
